In one data set the target is Cytochrome P450 2D6 (Homo sapiens, UniProt P10635).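 Also: CYP2D6 member of a cytochrome P450 panel assay.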
The target of data set [1] is T1, Lysine-specific demethylase 4C (Homo sapiens, UniProt Q9H3R0).
T1 sequence (Q9H3R0 whole entry): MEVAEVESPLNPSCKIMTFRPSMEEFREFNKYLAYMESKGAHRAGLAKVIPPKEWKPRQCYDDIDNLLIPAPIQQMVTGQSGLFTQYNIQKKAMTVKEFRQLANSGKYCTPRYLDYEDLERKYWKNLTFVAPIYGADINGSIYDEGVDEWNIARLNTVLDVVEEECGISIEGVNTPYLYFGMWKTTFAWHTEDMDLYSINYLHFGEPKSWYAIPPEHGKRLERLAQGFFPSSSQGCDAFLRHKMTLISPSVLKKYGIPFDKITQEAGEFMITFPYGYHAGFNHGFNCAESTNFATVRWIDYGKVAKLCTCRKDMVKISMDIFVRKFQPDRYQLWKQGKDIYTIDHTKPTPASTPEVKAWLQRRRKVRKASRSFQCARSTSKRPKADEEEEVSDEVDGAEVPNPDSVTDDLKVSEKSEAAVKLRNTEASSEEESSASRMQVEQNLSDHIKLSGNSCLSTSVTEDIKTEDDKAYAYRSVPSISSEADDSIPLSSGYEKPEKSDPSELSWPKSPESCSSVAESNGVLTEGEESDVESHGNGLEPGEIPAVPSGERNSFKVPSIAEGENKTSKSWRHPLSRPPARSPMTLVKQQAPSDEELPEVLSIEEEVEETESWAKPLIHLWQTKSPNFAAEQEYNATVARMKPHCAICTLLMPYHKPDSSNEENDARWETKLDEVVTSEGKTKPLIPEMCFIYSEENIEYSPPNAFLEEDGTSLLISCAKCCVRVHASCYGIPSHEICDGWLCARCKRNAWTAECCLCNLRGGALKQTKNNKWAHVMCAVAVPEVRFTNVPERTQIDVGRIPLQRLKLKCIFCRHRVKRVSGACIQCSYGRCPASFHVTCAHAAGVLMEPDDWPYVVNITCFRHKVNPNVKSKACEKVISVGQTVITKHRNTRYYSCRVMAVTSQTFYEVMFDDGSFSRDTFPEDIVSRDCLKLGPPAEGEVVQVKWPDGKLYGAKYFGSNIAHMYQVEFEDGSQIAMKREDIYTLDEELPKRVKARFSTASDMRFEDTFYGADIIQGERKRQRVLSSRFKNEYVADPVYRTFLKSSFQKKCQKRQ
As to the kind of experiment: GASC-1 (JMJD2C) histone demethylase inhibitors, dose response, biochemical, DELFIA europium, cherry-picked samples (AID 488835). The format is functional.

For data set [2], the target named is Dual specificity tyrosine-phosphorylation-regulated kinase 1A (Rattus norvegicus, UniProt Q63470). The class given is biochemical, Homo sapiens.
Data set [3] in a line: insulin promoter down-regulators in MIN6 cells, imaging, high-content screening, mouse beta cells (AID 1628). The class given is functional.
Data set [4] can be described thus: cytotoxicity in MIN6 insulinoma cells, dose response, cytotoxicity control, cell-based, mouse insulinoma (AID 2122).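 Also: confirmatory high-throughput counterscreen run to flag cytotoxic compounds; mouse MIN-6 beta cells carrying an insulin promoter eGFP reporter.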 The class given is functional.
Data set [5] addresses T2, Heat shock factor protein 1 (Mus musculus, UniProt P38532).
T2 sequence (P38532 whole entry): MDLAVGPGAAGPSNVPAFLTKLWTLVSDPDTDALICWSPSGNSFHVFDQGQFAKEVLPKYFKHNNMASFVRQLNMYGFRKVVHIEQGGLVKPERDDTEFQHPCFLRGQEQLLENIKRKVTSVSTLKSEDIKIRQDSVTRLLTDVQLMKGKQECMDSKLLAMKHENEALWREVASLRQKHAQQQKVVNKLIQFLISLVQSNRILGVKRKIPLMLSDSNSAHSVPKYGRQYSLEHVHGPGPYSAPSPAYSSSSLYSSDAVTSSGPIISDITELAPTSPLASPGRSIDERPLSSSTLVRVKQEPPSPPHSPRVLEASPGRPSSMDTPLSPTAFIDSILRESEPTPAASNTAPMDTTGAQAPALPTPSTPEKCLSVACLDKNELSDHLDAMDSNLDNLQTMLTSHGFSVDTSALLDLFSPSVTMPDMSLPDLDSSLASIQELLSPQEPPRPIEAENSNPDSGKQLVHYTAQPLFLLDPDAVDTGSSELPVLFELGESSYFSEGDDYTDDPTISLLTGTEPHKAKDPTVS
As to the kind of experiment: inhibition of MG132-induced HSE-luciferase signal, confirmation, cell-based, NIH3T3, luminescence, dose retest (AID 2382).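 Also: NIH3T3 fibroblasts with HSF1-driven luciferase reporter stressed by proteasome inhibitor MG132; luminescence from HSF1-driven luciferase expression after 8 hours of MG132 stress.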 The format is functional.

For another data set, the system named is INS1. As to the kind of experiment: beta cell apoptosis inhibitors, cytokine rescue, dose response, luminescence, retest (AID 449756).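 Also: cell death triggered by IL-1 beta plus TNF-alpha plus IFN-gamma mixture; protective hits raise ATP signal compared with cytokine alone wells.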 The class given is functional, cell-based. The note with it: Rattus norvegicus.
The target in data set [6] is T3, RNA-binding protein pos-1 (Caenorhabditis elegans, UniProt G5EF15).
T3 sequence (G5EF15 whole entry): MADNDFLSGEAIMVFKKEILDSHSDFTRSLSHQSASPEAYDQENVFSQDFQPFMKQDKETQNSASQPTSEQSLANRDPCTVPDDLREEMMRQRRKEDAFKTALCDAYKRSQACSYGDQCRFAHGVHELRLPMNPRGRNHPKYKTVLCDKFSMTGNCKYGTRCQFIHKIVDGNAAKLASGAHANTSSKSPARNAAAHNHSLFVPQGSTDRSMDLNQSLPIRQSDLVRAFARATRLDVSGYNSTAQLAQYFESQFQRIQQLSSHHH
As to the kind of experiment: inhibitors of POS-1/mex-3 RNA binding, dose response, biochemical, fluorescence polarization (AID 1964).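 Also: purified POS-1 fused to maltose binding protein made in E. coli; potency of compounds blocking POS-1 binding to fluorescent RNA.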 For orientation: In fluorescence polarisation assays a small probe gives low polarisation when free and higher when bound to something large.

In data set [7] the target is T4, Zinc finger protein mex-5 (Caenorhabditis elegans, UniProt Q9XUB2).
T4 sequence (Q9XUB2 whole entry): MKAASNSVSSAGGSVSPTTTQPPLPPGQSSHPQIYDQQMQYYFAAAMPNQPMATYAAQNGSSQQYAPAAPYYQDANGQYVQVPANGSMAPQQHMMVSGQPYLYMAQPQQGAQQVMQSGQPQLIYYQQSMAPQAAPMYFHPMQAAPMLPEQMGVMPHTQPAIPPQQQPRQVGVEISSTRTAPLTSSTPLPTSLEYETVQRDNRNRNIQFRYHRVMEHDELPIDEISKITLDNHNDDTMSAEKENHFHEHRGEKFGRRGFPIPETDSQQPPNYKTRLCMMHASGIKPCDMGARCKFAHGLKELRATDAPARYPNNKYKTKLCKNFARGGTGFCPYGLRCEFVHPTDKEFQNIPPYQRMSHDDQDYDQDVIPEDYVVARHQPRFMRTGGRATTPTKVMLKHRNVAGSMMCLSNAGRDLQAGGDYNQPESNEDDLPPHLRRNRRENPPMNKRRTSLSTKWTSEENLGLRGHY
Description: MEX-5/TCR-2 RNA interaction inhibitors, dose response, biochemical, C. elegans, fluorescence polarization (AID 1960).

The target in a further data set is Keap1/Nrf2 (Homo sapiens, UniProt Q14145). As to the kind of experiment: Keap1-Nrf2 protein-protein interaction inhibitors, dose response, biochemical, fluorescence polarization, cherry-picked samples (AID 588683).
The target of data set [8] is T5, Ubiquitin-conjugating enzyme E2 N (Homo sapiens, UniProt P61088).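 Also: Dose-response confirmation in a TR-FRET assay detecting UBC13-driven polyubiquitin chain formation, inhibition measured.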
T5 sequence (P61088 whole entry): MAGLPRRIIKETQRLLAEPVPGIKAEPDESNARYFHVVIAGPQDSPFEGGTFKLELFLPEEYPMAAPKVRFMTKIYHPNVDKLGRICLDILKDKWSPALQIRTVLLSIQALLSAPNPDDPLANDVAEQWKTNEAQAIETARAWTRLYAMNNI
The class given is functional.

Data set [9] has as its target T6, Microphthalmia-associated transcription factor (Homo sapiens, UniProt O75030).
T6 sequence (O75030 whole entry): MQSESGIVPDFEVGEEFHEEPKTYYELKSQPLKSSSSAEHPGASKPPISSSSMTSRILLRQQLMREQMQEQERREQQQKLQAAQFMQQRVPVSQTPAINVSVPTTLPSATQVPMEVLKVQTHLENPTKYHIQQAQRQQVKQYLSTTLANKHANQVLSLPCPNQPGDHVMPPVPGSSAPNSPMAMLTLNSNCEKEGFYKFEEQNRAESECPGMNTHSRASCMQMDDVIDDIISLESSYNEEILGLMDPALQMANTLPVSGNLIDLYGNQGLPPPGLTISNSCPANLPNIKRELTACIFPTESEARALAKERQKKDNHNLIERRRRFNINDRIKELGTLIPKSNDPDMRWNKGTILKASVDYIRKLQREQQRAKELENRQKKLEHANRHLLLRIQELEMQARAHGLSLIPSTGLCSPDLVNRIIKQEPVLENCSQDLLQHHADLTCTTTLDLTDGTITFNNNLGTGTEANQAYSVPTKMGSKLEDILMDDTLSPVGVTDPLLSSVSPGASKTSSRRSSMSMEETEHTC
As to the kind of experiment: TRPM1 promoter luciferase signal decrease, dose response, MITF inhibitor project, cell-based, SK-MEL-5, cherry-picked, set 3 (AID 493073).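 Also: SK-MEL-5 melanoma cells with luciferase driven by the MITF target TRPM1 promoter.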 The format is functional.

The next data set deals with H9c2. As to the kind of experiment: cells. The note with it: Rattus norvegicus, H9c2, Myocardium. The format is functional, cell-based.
The test system of a further data set is A-375. Description: A375 melanoma cell viability reduction, dose response, counter-screen for MITF modulator project, cherry-pick samples, set 2 (AID 540335). The class given is functional, cell-based. The note with it: Homo sapiens.
The nature of data set [10]: Shn3 3'UTR reporter inhibitors, dose response, cell-based, Clone20 osteoblasts, firefly luciferase, cherry-picked (AID 624132).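 Also: firefly luciferase luminescence from reporter carrying the Shn3 3'UTR in osteoblasts.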 The format is functional.
Data set [11] in a line: HepG2 cell cytotoxicity, dose response, cytotoxicity control for Shn3 inhibitor project, CellTiter-Glo, cherry-picked (AID 624134). The format is functional, cell-based. For orientation: ATP-based viability assays read luminescence as a measure of living cells.
The nature of data set [12]: control 3'UTR Renilla luciferase suppression, dose response, counter-screen for Shn3 inhibitor project, cell-based, Clone20-Shn3RL, cherry-picked (AID 624133). The class given is functional. (The purpose of a counterscreen is to sort out artefacts and off-target activity.)

SMILES strings stand for the structures. The source made the active and inactive calls.

For orientation: AC50 means the concentration at which the activity in the assay is half-maximal. Usually IC50 stands for the concentration needed to halve the response being measured. Broadly, the EC50 is the concentration giving half of the maximal effect.

Sequence of Cytochrome P450 2D6 (P10635 whole entry): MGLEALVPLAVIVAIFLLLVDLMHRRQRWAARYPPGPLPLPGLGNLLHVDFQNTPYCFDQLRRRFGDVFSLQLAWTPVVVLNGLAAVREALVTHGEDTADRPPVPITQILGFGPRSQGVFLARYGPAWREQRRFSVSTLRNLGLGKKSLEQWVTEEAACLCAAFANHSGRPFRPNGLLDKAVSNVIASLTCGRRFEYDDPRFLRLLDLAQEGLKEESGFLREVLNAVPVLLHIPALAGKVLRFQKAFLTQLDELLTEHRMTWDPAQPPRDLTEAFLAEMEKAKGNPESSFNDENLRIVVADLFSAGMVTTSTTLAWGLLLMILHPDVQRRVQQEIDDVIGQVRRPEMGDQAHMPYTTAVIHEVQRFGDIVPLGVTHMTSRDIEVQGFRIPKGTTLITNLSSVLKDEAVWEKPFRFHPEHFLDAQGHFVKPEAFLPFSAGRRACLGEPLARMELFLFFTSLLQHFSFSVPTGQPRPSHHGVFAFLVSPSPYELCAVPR
Sequence of Keap1/Nrf2 (Q16236 whole entry): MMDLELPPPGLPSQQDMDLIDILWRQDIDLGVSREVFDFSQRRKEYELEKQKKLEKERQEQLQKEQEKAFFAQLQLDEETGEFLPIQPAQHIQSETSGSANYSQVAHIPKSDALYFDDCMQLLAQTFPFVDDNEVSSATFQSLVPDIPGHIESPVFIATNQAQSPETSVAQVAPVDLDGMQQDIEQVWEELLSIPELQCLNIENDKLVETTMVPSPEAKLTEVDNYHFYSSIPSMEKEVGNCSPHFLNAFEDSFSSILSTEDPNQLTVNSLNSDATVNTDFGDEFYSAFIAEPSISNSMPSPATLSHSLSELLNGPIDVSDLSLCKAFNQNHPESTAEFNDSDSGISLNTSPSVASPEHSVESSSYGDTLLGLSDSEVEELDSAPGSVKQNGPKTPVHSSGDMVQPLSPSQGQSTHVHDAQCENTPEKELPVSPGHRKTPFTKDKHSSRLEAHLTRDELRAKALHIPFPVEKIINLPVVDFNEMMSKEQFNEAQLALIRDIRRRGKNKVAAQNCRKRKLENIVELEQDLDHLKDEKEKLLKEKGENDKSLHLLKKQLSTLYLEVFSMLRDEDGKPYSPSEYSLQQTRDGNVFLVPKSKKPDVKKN
Sequence of Keap1/Nrf2 (Q14145 whole entry): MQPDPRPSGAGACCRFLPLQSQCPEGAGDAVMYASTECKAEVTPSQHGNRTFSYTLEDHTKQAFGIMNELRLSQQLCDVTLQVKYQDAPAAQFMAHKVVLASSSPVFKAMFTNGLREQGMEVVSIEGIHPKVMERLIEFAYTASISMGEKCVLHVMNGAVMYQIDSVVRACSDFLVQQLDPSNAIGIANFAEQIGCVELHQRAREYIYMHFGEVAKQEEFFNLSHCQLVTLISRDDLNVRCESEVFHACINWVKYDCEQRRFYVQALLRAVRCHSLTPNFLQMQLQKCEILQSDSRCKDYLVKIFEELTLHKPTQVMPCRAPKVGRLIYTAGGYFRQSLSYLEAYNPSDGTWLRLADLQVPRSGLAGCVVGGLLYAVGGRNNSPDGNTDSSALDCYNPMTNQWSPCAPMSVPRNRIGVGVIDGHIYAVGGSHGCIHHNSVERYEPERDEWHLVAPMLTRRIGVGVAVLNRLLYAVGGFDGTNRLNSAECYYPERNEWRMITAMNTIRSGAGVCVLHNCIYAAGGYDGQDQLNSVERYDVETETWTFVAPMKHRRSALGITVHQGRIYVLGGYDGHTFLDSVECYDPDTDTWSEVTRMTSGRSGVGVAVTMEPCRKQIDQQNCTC

For `c1ccc(C2OCC3(CO2)COC(c2ccccc2)OC3)cc1` (stereo unspecified), at Cytochrome P450 2D6, the AC50 entry is “inconclusive”.

Take `O=C(O)c1nn(-c2ccccc2-c2nnc(O)nc2O)c(=O)[nH]c1=O`: at Cytochrome P450 2D6, the AC50 result is “inconclusive”.

On to `Cc1cccc(N2C(=O)NC(=O)/C(=C\c3cnc(-c4ccccc4)nc3)C2=O)c1`, for which the AC50 in [1] is 15.2 µM (active).

With `O=C(Cc1c(F)cccc1Cl)Nc1nc2ccccc2s1`, in data set [2], the concentration at half-maximal activity (AC50) was 7.77 µM (active).

With `Cc1ccc(Cn2c(=N)n(CC(=O)c3ccccc3)c3ccccc32)cc1`, the IC50 was 1.8 µM (active) in data set [3] and 1.86 µM (active) in data set [4]. The EC50 in data set [5] was > 195 µM (not active). In addition, the AC50 in the data set on INS1 was 7.43 µM (active).

With `CCCCOc1ccc(/C=C2/Sc3ccccc3C2=O)cc1`, the 50% effective concentration (EC50) was 158 µM (inconclusive) in data set [6] and 177 µM (inconclusive) in data set [7]. Moreover, the AC50 at Keap1/Nrf2 was > 52 µM (inactive).

With `CC(C)C(=O)Nc1cccc(C(=O)N2CCCCC2C)c1` (stereo unspecified), the IC50 is 2.43 µM (active) in data set [3] and 1.99 µM (active) in data set [4].

As for `CC(Oc1cccc(Br)c1)C(=O)NNC(=O)c1ccccn1` (stereo unspecified), the IC50 in data set [8] is > 20 µM (inactive); with H9c2, > 79 µM (inactive). Moreover, the AC50 is 7.18 µM (active) in data set [9]; 41.2 µM (active) with A-375; 3.36 µM (active) in data set [10]; 49.4 µM (active) in data set [11]; 3.19 µM (active) in [12].

On to `COc1cc(N2CN=c3s/c(=C\c4ccccn4)c(=O)n3C2)cc(OC)c1OC`, for which, in data set [2], the AC50 is 3.08 µM (active).
